The record followed here is ChEMBL document CHEMBL1201862, “PubChem BioAssay data set” (2004).

In experiment [1] the target is T1, Apoptotic protease-activating factor 1 (Homo sapiens, UniProt O14727).
T1 sequence (O14727 whole entry): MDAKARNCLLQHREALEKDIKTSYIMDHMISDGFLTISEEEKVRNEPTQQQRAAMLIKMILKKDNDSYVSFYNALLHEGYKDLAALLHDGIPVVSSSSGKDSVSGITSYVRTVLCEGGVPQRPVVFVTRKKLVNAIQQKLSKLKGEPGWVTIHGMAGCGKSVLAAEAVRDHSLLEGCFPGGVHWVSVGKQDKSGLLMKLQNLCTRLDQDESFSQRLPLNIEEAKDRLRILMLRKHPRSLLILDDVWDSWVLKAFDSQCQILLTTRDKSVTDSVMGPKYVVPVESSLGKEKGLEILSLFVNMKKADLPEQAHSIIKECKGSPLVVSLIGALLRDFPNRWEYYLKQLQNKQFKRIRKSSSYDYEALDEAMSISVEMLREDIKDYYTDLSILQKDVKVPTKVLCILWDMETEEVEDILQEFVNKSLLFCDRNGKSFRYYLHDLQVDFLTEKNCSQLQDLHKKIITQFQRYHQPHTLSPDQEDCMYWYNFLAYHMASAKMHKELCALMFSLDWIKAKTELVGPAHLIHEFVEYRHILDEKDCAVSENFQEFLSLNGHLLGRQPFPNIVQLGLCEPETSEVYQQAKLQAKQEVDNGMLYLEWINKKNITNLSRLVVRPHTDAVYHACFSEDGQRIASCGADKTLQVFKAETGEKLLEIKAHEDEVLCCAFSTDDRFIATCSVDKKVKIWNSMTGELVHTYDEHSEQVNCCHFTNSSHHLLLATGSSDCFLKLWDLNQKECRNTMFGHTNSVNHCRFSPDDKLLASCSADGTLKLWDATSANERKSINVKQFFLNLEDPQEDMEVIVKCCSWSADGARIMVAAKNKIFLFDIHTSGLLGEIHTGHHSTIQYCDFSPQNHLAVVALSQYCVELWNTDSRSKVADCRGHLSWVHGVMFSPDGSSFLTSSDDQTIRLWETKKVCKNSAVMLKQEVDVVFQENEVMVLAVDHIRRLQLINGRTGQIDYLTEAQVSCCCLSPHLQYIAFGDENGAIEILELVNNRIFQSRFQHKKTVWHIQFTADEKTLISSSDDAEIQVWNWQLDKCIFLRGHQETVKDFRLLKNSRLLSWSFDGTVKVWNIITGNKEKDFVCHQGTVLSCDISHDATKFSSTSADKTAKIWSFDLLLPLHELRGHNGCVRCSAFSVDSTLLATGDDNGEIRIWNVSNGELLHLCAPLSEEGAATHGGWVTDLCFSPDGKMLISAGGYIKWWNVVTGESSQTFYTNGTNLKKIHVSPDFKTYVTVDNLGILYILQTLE
Briefly: activation of Apaf-1 mediated apoptosis – fluorescent, uHTS hits, dose response (AID 588554). It is filed as functional.

Experiment [2] has as its system H4. Put plainly: Luminescence Cell-Based Dose Response HTS to Identify Activators of 5'UTR Stem-Loop Driven Prion Protein mRNA Translation in H4 Neuroglioblastoma Cells. [Related pubchem assays: 1829 (Project Summary), 1814 (Primary HTS)]. The experiment is classed as functional. The following applies: Homo sapiens.
Experiment [3] concerns the target Keap1/Nrf2 (Homo sapiens, UniProt Q14145). Put plainly: disruptors of Keap1 binding to Nrf2 peptide – biochemical, fluorescence polarization, cherry-picked samples, dose response (AID 588683).
Experiment [4] is described as follows: Luminescence Cell-Based Dose Response HTS to Identify Activators of Luciferase Translation or Activity in H4 […] Cells. [Related pubchem assays: 1829 (Project Summary), 1814 (Primary HTS)]. It is filed as functional.
Experiment [5] deals with Large T antigen (Simian virus 40, UniProt P03070). It is filed as functional, Betapolyomavirus macacae.
Chain of Large T antigen (P03070 whole entry): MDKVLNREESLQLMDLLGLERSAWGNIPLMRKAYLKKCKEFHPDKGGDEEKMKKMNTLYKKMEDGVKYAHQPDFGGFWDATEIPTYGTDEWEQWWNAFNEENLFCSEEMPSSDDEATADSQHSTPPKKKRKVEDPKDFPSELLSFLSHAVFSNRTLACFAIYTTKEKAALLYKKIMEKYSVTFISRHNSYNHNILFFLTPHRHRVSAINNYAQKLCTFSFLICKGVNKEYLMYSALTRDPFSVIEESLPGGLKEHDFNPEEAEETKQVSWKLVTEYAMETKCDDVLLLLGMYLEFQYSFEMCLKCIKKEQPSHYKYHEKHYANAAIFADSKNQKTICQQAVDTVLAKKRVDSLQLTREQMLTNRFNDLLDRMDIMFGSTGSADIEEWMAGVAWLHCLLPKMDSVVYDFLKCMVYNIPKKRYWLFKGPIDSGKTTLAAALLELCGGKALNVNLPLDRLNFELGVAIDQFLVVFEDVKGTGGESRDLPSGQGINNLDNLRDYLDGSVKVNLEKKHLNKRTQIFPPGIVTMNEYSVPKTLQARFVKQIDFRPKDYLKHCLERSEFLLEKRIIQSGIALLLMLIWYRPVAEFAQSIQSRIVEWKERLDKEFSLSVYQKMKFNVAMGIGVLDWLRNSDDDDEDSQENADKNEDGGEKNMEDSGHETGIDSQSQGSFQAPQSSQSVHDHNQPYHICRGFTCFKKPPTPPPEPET
The target in experiment [6] is Phosphomannomutase 2 (Homo sapiens, UniProt O15305). Briefly: Counter screen SAR assay for PMM2 inhibitors via a fluorescence intensity assay. [Related pubchem assays (depositor defined):AID1545, AID1574].
Chain of Phosphomannomutase 2 (O15305 whole entry): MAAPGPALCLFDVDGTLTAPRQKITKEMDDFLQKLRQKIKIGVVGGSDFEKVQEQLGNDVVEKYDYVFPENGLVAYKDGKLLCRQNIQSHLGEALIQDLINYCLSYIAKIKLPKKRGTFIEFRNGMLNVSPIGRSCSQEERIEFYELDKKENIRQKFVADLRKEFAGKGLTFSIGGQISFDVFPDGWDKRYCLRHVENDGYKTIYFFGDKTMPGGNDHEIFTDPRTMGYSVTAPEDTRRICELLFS
In experiment [7] the target is T2, Mannose-6-phosphate isomerase (Homo sapiens, UniProt P34949).
T2 sequence (P34949 whole entry): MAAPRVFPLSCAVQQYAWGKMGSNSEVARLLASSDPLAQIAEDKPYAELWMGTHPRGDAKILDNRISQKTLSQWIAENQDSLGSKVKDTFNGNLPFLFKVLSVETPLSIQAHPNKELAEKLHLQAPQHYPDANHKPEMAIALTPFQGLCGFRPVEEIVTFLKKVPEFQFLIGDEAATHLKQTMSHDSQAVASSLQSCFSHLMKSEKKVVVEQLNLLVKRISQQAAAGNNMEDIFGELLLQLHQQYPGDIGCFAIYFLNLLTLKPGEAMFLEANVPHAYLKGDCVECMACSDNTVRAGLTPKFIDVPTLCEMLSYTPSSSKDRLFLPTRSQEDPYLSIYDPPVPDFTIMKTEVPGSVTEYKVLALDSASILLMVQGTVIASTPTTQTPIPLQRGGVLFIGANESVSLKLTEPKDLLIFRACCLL
Briefly: phosphomannose isomerase inhibition – biochemical, fluorescence intensity, confirmation (AID 1535).

In experiment [8] the target is Potassium voltage-gated channel subfamily KQT member 2 (Rattus norvegicus, UniProt O88943). Put plainly: rat KCNQ2 current potentiators – automated patch clamp, KCNQ2-CHO cells, SAR follow-up (AID 493113). The experiment is classed as functional.
Chain of Potassium voltage-gated channel subfamily KQT member 2 (O88943 whole entry): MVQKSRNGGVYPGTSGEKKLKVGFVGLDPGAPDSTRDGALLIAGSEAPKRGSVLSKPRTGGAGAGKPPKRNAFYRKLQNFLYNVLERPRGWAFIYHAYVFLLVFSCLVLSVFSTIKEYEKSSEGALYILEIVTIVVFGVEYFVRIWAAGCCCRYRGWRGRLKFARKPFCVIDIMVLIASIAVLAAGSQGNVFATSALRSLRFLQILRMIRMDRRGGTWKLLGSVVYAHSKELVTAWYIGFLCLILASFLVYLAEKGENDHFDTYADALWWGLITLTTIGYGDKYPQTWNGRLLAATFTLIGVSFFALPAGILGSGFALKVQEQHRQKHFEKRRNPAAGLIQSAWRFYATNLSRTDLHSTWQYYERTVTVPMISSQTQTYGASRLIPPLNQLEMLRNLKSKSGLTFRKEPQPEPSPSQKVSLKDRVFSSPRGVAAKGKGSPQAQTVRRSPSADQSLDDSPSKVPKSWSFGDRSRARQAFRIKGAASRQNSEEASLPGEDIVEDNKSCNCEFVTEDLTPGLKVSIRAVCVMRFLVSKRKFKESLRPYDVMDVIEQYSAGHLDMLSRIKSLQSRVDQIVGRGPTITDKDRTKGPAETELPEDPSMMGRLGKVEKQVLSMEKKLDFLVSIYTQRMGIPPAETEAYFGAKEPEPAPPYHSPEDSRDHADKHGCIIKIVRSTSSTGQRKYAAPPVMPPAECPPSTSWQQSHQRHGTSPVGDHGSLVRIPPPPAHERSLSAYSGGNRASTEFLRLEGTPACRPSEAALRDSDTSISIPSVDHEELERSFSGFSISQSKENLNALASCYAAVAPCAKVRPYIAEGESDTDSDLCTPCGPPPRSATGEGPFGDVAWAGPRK
The target of experiment [9] is T3, Replicative DNA helicase DnaB (Mycobacterium tuberculosis, UniProt P9WMR3).
T3 sequence (P9WMR3 whole entry): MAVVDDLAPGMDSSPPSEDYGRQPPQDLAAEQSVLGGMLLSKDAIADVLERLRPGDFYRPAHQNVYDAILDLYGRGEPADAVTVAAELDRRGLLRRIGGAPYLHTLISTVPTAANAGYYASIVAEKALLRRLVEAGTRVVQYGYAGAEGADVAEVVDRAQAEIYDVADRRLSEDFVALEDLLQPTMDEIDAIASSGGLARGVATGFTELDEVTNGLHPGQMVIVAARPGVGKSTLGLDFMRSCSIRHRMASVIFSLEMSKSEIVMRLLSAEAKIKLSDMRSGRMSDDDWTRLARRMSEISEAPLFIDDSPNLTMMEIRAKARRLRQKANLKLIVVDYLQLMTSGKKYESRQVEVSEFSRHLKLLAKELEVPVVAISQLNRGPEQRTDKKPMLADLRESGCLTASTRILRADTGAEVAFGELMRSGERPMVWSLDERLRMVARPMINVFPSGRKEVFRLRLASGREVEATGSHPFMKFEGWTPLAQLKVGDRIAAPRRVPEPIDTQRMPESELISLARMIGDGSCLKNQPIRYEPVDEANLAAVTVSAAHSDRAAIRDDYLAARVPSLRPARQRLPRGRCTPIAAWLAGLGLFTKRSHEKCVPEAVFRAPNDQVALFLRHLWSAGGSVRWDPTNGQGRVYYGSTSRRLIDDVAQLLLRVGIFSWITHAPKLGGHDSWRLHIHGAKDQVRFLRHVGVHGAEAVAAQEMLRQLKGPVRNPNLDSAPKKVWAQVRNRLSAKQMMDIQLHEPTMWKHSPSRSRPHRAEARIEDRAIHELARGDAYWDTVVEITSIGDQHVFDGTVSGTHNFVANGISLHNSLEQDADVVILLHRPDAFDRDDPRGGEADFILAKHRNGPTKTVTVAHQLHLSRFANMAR
Put plainly: DnaB intein splicing inhibitors, dose response, biochemical, cell-free fluorescence (AID 449749). The experiment is classed as functional.

Experiment [10] has as its target T2, Mannose-6-phosphate isomerase. Put plainly: MPI inhibition at elevated mannose 6-phosphate – biochemical, fluorescence intensity, high mannose 6-phosphate, primary screen (AID 1220).
For experiment [11], the target named is T4, Histone-lysine N-methyltransferase NSD2 (Homo sapiens, UniProt O96028).
T4 sequence (O96028 whole entry): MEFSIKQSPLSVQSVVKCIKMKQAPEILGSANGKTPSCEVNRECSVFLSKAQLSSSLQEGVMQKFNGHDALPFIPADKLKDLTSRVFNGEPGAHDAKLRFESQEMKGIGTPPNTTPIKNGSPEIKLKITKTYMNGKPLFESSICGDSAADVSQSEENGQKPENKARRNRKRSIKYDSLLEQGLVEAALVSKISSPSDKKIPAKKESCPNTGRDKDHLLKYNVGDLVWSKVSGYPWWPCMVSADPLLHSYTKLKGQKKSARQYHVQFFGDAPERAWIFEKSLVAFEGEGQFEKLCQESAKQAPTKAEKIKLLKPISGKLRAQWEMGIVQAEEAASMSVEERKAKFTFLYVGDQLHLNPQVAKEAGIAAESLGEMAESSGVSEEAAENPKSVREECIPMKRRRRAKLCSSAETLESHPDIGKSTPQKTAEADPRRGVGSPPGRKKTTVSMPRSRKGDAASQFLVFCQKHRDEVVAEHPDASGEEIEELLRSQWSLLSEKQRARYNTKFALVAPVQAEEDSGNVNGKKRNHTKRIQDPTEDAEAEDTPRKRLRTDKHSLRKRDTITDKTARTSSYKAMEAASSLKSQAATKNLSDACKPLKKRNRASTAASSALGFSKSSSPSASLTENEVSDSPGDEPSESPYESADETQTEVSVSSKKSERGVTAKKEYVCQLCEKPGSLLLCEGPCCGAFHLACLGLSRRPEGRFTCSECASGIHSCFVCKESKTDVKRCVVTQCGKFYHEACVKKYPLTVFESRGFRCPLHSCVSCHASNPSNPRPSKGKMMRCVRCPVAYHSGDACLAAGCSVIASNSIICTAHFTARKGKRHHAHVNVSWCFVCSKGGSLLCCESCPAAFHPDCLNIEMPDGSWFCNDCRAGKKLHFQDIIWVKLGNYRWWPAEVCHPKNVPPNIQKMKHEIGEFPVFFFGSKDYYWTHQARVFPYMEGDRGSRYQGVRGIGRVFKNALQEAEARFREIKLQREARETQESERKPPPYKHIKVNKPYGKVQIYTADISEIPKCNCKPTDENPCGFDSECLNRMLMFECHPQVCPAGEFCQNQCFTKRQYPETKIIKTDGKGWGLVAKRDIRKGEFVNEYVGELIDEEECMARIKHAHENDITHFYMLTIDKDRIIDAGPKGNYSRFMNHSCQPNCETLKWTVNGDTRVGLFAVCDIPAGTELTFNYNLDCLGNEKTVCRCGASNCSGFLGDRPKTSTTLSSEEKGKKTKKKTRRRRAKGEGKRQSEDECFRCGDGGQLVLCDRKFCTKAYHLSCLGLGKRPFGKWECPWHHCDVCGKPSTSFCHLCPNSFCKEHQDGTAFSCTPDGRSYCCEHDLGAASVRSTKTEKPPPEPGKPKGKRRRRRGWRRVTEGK
The experiment is classed as biochemical.

Experiment [12] deals with Lysine-specific demethylase 4C (Homo sapiens, UniProt Q9H3R0). Put plainly: inhibition of JMJD2C H3K9me3 demethylation – biochemical, DELFIA europium, cherry-picked samples, dose response (AID 488835). It is filed as functional.
Chain of Lysine-specific demethylase 4C (Q9H3R0 whole entry): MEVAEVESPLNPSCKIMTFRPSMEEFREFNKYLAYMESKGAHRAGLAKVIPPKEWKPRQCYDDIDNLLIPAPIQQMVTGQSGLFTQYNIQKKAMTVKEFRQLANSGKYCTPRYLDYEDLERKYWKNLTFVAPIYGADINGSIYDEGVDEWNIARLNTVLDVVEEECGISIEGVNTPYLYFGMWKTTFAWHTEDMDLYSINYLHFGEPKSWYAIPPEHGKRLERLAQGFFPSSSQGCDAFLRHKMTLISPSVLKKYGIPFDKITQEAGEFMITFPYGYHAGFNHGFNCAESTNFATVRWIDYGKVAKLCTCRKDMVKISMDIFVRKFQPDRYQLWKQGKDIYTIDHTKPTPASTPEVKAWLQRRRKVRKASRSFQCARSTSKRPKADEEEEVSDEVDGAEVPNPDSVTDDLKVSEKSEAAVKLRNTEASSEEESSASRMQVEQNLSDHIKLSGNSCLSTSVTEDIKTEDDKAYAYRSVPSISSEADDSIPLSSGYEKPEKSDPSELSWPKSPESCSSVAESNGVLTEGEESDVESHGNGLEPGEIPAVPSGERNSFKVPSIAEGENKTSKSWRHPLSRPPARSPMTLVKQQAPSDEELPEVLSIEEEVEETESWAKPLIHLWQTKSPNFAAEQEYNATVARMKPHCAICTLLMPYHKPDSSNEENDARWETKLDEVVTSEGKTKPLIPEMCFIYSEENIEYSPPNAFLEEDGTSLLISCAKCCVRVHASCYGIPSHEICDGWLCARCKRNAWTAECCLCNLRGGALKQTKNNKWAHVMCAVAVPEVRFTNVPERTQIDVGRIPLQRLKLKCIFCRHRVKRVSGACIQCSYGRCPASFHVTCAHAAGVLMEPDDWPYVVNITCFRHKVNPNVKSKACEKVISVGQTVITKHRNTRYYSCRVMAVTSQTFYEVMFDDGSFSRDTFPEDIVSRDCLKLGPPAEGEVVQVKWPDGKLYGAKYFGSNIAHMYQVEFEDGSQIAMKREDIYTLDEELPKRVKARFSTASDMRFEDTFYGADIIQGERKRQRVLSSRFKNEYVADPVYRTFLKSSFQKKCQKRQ
Experiment [13] addresses T5, Protein RecA (Mycobacterium tuberculosis, UniProt P9WHJ3).
T5 sequence (P9WHJ3 whole entry): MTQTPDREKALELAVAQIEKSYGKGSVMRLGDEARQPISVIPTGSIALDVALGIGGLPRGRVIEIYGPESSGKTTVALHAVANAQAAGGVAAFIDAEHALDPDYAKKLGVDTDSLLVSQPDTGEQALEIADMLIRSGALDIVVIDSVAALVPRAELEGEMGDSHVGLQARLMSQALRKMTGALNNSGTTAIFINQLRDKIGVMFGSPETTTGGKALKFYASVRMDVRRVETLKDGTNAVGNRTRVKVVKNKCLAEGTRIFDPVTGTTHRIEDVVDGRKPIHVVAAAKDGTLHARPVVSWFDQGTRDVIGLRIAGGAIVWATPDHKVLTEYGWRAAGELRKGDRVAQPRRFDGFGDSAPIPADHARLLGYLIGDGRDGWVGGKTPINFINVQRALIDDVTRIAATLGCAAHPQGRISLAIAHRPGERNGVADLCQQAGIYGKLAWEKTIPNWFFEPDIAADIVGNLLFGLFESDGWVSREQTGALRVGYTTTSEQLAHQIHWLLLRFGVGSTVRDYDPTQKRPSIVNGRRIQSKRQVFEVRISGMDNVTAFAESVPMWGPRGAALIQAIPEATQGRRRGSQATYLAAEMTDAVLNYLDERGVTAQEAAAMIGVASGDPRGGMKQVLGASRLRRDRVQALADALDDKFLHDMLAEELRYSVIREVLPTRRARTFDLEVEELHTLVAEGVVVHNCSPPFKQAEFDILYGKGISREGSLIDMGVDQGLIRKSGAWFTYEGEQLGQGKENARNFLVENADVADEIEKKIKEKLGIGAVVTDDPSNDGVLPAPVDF
Put plainly: Fluorescence Cell-Free Homogeneous Dose Retest to Identify Inhibitors of RecA-Intein Splicing Activity. [Related pubchem assays (depositor defined):AID2097, AID2223, AID489010, AID492950]. It is filed as functional.

Active and inactive are the calls of the source.

Chain of Keap1/Nrf2 (Q16236 whole entry): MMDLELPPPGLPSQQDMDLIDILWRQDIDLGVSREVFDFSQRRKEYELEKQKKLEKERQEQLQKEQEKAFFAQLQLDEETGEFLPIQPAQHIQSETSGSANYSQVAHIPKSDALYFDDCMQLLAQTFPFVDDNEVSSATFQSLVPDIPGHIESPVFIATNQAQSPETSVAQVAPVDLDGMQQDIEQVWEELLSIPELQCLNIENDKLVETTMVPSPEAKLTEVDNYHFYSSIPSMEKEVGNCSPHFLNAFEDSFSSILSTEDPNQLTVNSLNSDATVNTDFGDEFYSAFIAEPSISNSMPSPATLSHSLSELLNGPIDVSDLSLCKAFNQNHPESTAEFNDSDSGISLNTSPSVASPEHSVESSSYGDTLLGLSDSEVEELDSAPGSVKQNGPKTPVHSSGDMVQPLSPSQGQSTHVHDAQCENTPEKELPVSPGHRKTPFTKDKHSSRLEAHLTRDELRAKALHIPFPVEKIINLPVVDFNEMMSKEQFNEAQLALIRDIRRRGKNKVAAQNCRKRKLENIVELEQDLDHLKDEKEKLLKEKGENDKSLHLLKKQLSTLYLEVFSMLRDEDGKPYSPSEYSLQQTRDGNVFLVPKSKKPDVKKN
Chain of Keap1/Nrf2 (Q14145 whole entry): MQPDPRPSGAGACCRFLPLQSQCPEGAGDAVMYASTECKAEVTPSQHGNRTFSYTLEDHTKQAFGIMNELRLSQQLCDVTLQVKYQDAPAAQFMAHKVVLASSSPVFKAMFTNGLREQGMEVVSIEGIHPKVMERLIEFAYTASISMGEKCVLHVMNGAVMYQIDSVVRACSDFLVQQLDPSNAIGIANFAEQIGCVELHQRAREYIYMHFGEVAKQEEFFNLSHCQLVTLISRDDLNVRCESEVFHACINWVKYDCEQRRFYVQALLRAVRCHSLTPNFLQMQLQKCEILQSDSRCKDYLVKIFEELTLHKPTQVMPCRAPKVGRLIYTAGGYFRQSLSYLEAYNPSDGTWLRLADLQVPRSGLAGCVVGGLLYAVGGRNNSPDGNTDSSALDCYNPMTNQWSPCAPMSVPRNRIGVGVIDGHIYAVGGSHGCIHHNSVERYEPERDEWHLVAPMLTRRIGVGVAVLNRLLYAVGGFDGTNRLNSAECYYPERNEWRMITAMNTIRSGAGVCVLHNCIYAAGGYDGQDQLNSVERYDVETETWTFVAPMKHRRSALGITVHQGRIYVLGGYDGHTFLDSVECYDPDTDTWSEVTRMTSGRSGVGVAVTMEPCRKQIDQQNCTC

In the case of `O=C1C2(CCCC13COC(c1ccc(O)cc1)OC3)COC(c1ccc(O)cc1)OC2` (stereo not drawn), the 50% effective concentration (EC50) in experiment [1] is 9.2 µM (active).

On to `O=c1c(-c2cc3ccccc3o2)[n+]([O-])c2ccccc2n1OCc1ccccn1`, for which the EC50 in experiment [2] was 65.5 µM (inconclusive); in experiment [4] it was 4.81 µM (active). Also, the AC50 in experiment [3] is > 52 µM (inactive).

`CCOc1ccc(-c2n[nH]c(=S)[nH]2)cc1`: the values for the half-inhibitory concentration (IC50) in experiment [5], in [6] and in experiment [7] were > 100 µM (active), > 100 µM (inactive) and 39.1 µM (active), respectively.

Consider `Cc1cc(C)c(NC(=O)CCC2CCCC2)c(C)c1`, for which the 50% effective concentration (EC50) in experiment [8] was 490 nM (active).

Take `Cc1nnc(N/N=C\c2ccc(-c3ccccc3[N+](=O)[O-])o2)n1N`: the concentration at half-maximal activity (AC50) in experiment [9] was 58.9 µM (active); in [11], 10.3 µM (active); in experiment [12], 7.3 µM (active). For the same compound, the IC50 in experiment [10] is > 50 µM (not active). Further, in experiment [13], the EC50 is 23.5 µM (active).
